Laboratory results: patent US7388017B2, “Inhibitors of serine proteases, particularly hepatitis C virus NS3 protease” (Vertex Pharmaceuticals Incorporated, priority 1996, dated 2008)
Starred links: 1 amine or outer side, 2 acyl side, 3 side chain; linkers in the order of their positions; H or OH if unused. Non-standard residues stand in square brackets, D forms with d. Residues, ends and D or L forms follow the SMILES beside them. Groups on a side chain read outwards from the residue. *: point of attachment. CH2(1-naphthyl) = c1ccc2c(C*)cccc2c1; Benzyl(3,4-Cl2) = Clc1ccc(C*)cc1Cl; Pyrazinecarbonyl = O=C(c1cnccn1)*; NH(3-Cl-phenyl) = Clc1cccc(N*)c1; X26 = Clc1ccc(-c2ncc(C*)s2)cc1; X35 = Cc1noc(C)c1-c1nc(C*)no1; X36 = c1ccc(-c2ccc(C*)cc2)cc1; Hyp = O=C(O)[CH]1C[CH](O)CN1; X25 = c1ccc(-c2nc(C*)no2)cc1; X5 = c1ccc(Oc2cccc(C*)c2)cc1; X11 = c1ccc(-c2ccccc2C*)cc1; X2 = COc1ccccc1-c1nc(C*)no1; X21 = FC(F)(F)Oc1cccc(C*)c1; X27 = Fc1cc2c(c(C*)c1)OCOC2; X7 = O=C(c1ccc(Cl)c(Cl)c1)*; X20 = FC(F)(F)c1cccc(C*)c1; X24 = FC(F)(F)c1ccc(C*)cc1; X4 = FC(F)(F)Oc1ccc(C*)cc1; Isovaleryl = CC(C)CC(=O)*; X15 = Clc1cc2c(cc1C*)OCO2; X31 = Clc1ccc2scc(C*)c2c1; X40 = CC(C)(C)c1nc(C*)no1; X10 = c1ccc2cc(C*)ccc2c1; X32 = Clc1ccc(N*)c(Cl)c1; X6 = Nc1c(Cl)cc(N*)cc1Cl; X42 = Clc1cccc(N*)c1Cl; Abu = CC[CH](N)C(=O)O; X22 = N#Cc1cccc(C*)c1; X33 = N#Cc1ccc(C*)cc1; CO = O=C([*:1])[*:2]; X29 = Fc1ccc(C*)cc1F; Bz = O=C(c1ccccc1)*; X1 = Cc1noc(C)c1C*

Molecular target: T1, HCV NS3 protease (Hepatitis C virus genotype 1a, UniProt P27958)
T1 construct: more particularly HCV NS3 proteases
T1 sequence (P27958 1027-1208): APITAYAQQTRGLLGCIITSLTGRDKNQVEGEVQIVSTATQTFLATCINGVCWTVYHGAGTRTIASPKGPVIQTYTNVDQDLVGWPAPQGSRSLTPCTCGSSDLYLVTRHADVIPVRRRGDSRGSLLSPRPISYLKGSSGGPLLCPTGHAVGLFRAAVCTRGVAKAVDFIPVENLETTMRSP
Experiment: Enzyme inhibition of HCV NS3 serine protease (cleavage of peptide substrate / EDVV AbuC-p-nitroanilide, with or without NS4A)
Type: biochemical
Conditions: Enzyme inhibition data; Ki from rate vs [inhibitor] plots, Morrison tight binding competitive inhibition fit; 30 C, pH 7.8; read-out: Ki
Procedure: Cleavage reactions were quenched by the addition of an equal volume of a mixture of 10% TFA:acetonitrile (1:1) and activity was assessed on a reversed phase HPLC column (Rainin C18 Microsorb-MV, […], 4.6×250 mm; 0-50% acetonitrile, 0.1% TFA@ 3.33% min) using a Hewlett Packard 1050 instrument with auto-injection and diode array detection at 210 nm and 280 nm (where appropriate). Peptide elution fragments were collected and identified by mass spectrometry and N-terminal sequence analysis. Fragment identity and concentration was further verified by authentic, synthesized products. Initial rates of cleavage were determined at <20% substrate conversion and catalytic parameters were determined assuming Michaelis-Menten kinetics using the MultiFit program (Day Computing, Cambridge, Mass.).
Spectrophotometric assays were run in a 96-well microtiter plate at 30 C, using a SpectraMax 250 reader (Molecular Devices, Sunnyvale, Calif.) with kinetic capability. Cleavage of EDVV AbuC-p-nitroanilide (5A-pNA) substrate was performed with or without […] in the same buffer used for HPLC assays at 30 C, and pNA release was monitored at 405 nm. The extinction-coefficient of p-nitroaniline is independent of pH at values of 5.5. and above [Tuppy, H., et al., Hoppe-Seyler's Z. Physiol. Chem., 329, pp. 278-288 (1962)]; Raybuck and Luong, unpublished observations).
Kinetic constants for the rapid equilibrium ordered bisubstrate reaction were determined from rate vs [4A], [EDVV AbuC-pNA] data by non-linear least squares fitting to equation 1 [Morrison, J. F. Biochim. Biophys. Acta, 185, pp. 269-286 (1969)] as described in the text. Kii and Kis values for peptidyl inhibitors were determined from rate vs [inhibitor], [substrate] data and fitting to the equation for mixed inhibition: rate=Vmax[S]/{Km(1+[I]/Kis)+[S](1+[I]/Kii)} The commercial program KinetAsyst (StateCollege, Pa.) was used for both procedures. Ki values were calculated from rate vs [inhibitor] plots by a nonlinear least squares fit of the data to the equation of Morrison for tight binding competitive inhibition [Morrison, J. F. Biochim. Biophys. Acta, 185, pp. 269-286 (1969)]. The KineTic program (BioKin Ltd) was used for this procedure.
Ki values are expressed in μM. Category “A” indicates <1 μM inhibition; category “B” indicates 1-100 μM inhibition; category “C” indicates >100 μM.

SMILES: CCC(C=O)NC(=O)C1CC(OCc2cccc(Oc3ccccc3)c2)CN1C(=O)C(NC(=O)C(NC(=O)c1cnccn1)C(C)C)C(C)C (centres unmarked) [Compound 1] (Pyrazinecarbonyl-VV[Hyp](X5)[Abu]-aldehyde; configuration not given here)
- Ki: 1 to 100 µM

SMILES: CCC(C=O)NC(=O)C1CC(OCc2ccc(-c3ccccc3)cc2)CN1C(=O)C(NC(=O)C(NC(=O)c1cnccn1)C(C)C)C(C)C (centres unmarked) [Compound 2] (Pyrazinecarbonyl-VV[Hyp](X36)[Abu]-aldehyde; configuration not given here)
- Ki: 1 to 100 µM

SMILES: CCC(C=O)NC(=O)C1CC(OCc2noc(-c3ccccc3)n2)CN1C(=O)C(NC(=O)C(NC(=O)c1cnccn1)C(C)C)C(C)C (centres unmarked) [Compound 3] (Pyrazinecarbonyl-VV[Hyp](X25)[Abu]-aldehyde; configuration not given here)
- Ki: 1 to 100 µM

SMILES: CCC(C=O)NC(=O)C1CC(OCc2noc(-c3c(C)noc3C)n2)CN1C(=O)C(NC(=O)C(NC(=O)c1cnccn1)C(C)C)C(C)C (centres unmarked) [Compound 5] (Pyrazinecarbonyl-VV[Hyp](X35)[Abu]-aldehyde; configuration not given here)
- Ki: 1 to 100 µM

SMILES: CCC(C=O)NC(=O)C1CC(OCc2noc(C(C)(C)C)n2)CN1C(=O)C(NC(=O)C(NC(=O)c1cnccn1)C(C)C)C(C)C (centres unmarked) [Compound 6] (Pyrazinecarbonyl-VV[Hyp](X40)[Abu]-aldehyde; configuration not given here)
- Ki: 1 to 100 µM

SMILES: CCC(C=O)NC(=O)C1CC(OCc2cc(F)cc3c2OCOC3)CN1C(=O)C(NC(=O)C(NC(=O)c1cnccn1)C(C)C)C(C)C (centres unmarked) [Compound 8] (Pyrazinecarbonyl-VV[Hyp](X27)[Abu]-aldehyde; configuration not given here)
- Ki: 1 to 100 µM

SMILES: CCC(C=O)NC(=O)C1CC(OCc2cccc(OC(F)(F)F)c2)CN1C(=O)C(NC(=O)C(NC(=O)c1cnccn1)C(C)C)C(C)C (centres unmarked) [Compound 9] (Pyrazinecarbonyl-VV[Hyp](X21)[Abu]-aldehyde; configuration not given here)
- Ki: 1 to 100 µM

SMILES: CCC(C=O)NC(=O)C1CC(OCc2ccc(Cl)c(Cl)c2)CN1C(=O)C(NC(=O)C(NC(=O)c1cnccn1)C(C)C)C(C)C (centres unmarked) [Compound 10] (Pyrazinecarbonyl-VV[Hyp](Benzyl(3,4-Cl2))[Abu]-aldehyde; configuration not given here)
- Ki: 1 to 100 µM

SMILES: CCC(C=O)NC(=O)C1CC(OCc2ccccc2-c2ccccc2)CN1C(=O)C(NC(=O)C(NC(=O)c1cnccn1)C(C)C)C(C)C (centres unmarked) [Compound 11] (Pyrazinecarbonyl-VV[Hyp](X11)[Abu]-aldehyde; configuration not given here)
- Ki: 1 to 100 µM

SMILES: CCC(C=O)NC(=O)C1CC(OCc2c(C)noc2C)CN1C(=O)C(NC(=O)C(NC(=O)c1cnccn1)C(C)C)C(C)C (centres unmarked) [Compound 12] (Pyrazinecarbonyl-VV[Hyp](X1)[Abu]-aldehyde; configuration not given here)
- Ki: 1 to 100 µM

SMILES: CCC(C=O)NC(=O)C1CC(OCc2cc3c(cc2Cl)OCO3)CN1C(=O)C(NC(=O)C(NC(=O)c1cnccn1)C(C)C)C(C)C (centres unmarked) [Compound 13] (Pyrazinecarbonyl-VV[Hyp](X15)[Abu]-aldehyde; configuration not given here)
- Ki: 1 to 100 µM

SMILES: CCC(C=O)NC(=O)C1CC(OCc2noc(-c3ccccc3OC)n2)CN1C(=O)C(NC(=O)C(NC(=O)c1cnccn1)C(C)C)C(C)C (centres unmarked) [Compound 14] (Pyrazinecarbonyl-VV[Hyp](X2)[Abu]-aldehyde; configuration not given here)
- Ki: 1 to 100 µM

SMILES: CCC(C=O)NC(=O)C1CC(OCc2ccc(C#N)cc2)CN1C(=O)C(NC(=O)C(NC(=O)c1cnccn1)C(C)C)C(C)C (centres unmarked) [Compound 15] (Pyrazinecarbonyl-VV[Hyp](X33)[Abu]-aldehyde; configuration not given here)
- Ki: 1 to 100 µM

SMILES: CCC(C=O)NC(=O)C1CC(OCc2cccc(C(F)(F)F)c2)CN1C(=O)C(NC(=O)C(NC(=O)c1cnccn1)C(C)C)C(C)C (centres unmarked) [Compound 16] (Pyrazinecarbonyl-VV[Hyp](X20)[Abu]-aldehyde; configuration not given here)
- Ki: 1 to 100 µM

SMILES: CCC(C=O)NC(=O)C1CC(OCc2ccc(C(F)(F)F)cc2)CN1C(=O)C(NC(=O)C(NC(=O)c1cnccn1)C(C)C)C(C)C (centres unmarked) [Compound 17] (Pyrazinecarbonyl-VV[Hyp](X24)[Abu]-aldehyde; configuration not given here)
- Ki: 1 to 100 µM

SMILES: CCC(C=O)NC(=O)C1CC(OCc2ccc(OC(F)(F)F)cc2)CN1C(=O)C(NC(=O)C(NC(=O)c1cnccn1)C(C)C)C(C)C (centres unmarked) [Compound 18] (Pyrazinecarbonyl-VV[Hyp](X4)[Abu]-aldehyde; configuration not given here)
- Ki: 1 to 100 µM

SMILES: CCC(C=O)NC(=O)C1CC(OCc2ccc3ccccc3c2)CN1C(=O)C(NC(=O)C(NC(=O)c1cnccn1)C(C)C)C(C)C (centres unmarked) [Compound 20] (Pyrazinecarbonyl-VV[Hyp](X10)[Abu]-aldehyde; configuration not given here)
- Ki: 1 to 100 µM

SMILES: CCC(C=O)NC(=O)C1CC(OCc2cccc(C#N)c2)CN1C(=O)C(NC(=O)C(NC(=O)c1cnccn1)C(C)C)C(C)C (centres unmarked) [Compound 21] (Pyrazinecarbonyl-VV[Hyp](X22)[Abu]-aldehyde; configuration not given here)
- Ki: 1 to 100 µM

SMILES: CCC(C=O)NC(=O)C1CC(OCc2ccc(F)c(F)c2)CN1C(=O)C(NC(=O)C(NC(=O)c1cnccn1)C(C)C)C(C)C (centres unmarked) [Compound 22] (Pyrazinecarbonyl-VV[Hyp](X29)[Abu]-aldehyde; configuration not given here)
- Ki: 1 to 100 µM

SMILES: CCC(C=O)NC(=O)C1CC(OCc2csc3ccc(Cl)cc23)CN1C(=O)C(NC(=O)C(NC(=O)c1cnccn1)C(C)C)C(C)C (centres unmarked) [Compound 23] (Pyrazinecarbonyl-VV[Hyp](X31)[Abu]-aldehyde; configuration not given here)
- Ki: 1 to 100 µM

SMILES: CCC(C=O)NC(=O)C1CC(OCc2cnc(-c3ccc(Cl)cc3)s2)CN1C(=O)C(NC(=O)C(NC(=O)c1cnccn1)C(C)C)C(C)C (centres unmarked) [Compound 24] (Pyrazinecarbonyl-VV[Hyp](X26)[Abu]-aldehyde; configuration not given here)
- Ki: 1 to 100 µM

SMILES: CCC(C=O)NC(=O)C1CC(OCc2cccc3ccccc23)CN1C(=O)C(NC(=O)C(NC(=O)c1cnccn1)C(C)C)C(C)C (centres unmarked) [Compound 26] (Pyrazinecarbonyl-VV[Hyp](CH2(1-naphthyl))[Abu]-aldehyde; configuration not given here)
- Ki: 1 to 100 µM

SMILES: CCC(C=O)NC(=O)C1CC(OC(=O)c2ccc(Cl)c(Cl)c2)CN1C(=O)C(NC(=O)C(NC(=O)c1cnccn1)C(C)C)C(C)C (centres unmarked) [Compound 27] (Pyrazinecarbonyl-VV[Hyp](X7)[Abu]-aldehyde; configuration not given here)
- Ki: 1 to 100 µM

SMILES: CCC(C=O)NC(=O)C1CC(OC(=O)c2ccccc2)CN1C(=O)C(NC(=O)C(NC(=O)c1cnccn1)C(C)C)C(C)C (centres unmarked) [Compound 28] (Pyrazinecarbonyl-VV[Hyp](Bz)[Abu]-aldehyde; configuration not given here)
- Ki: 1 to 100 µM

SMILES: CCC(C=O)NC(=O)C1CC(OC(=O)CC(C)C)CN1C(=O)C(NC(=O)C(NC(=O)c1cnccn1)C(C)C)C(C)C (centres unmarked) [Compound 29] (Pyrazinecarbonyl-VV[Hyp](Isovaleryl)[Abu]-aldehyde; configuration not given here)
- Ki: 1 to 100 µM

SMILES: CCC(C=O)NC(=O)C1CC(OC(=O)Nc2ccc(Cl)cc2Cl)CN1C(=O)C(NC(=O)C(NC(=O)c1cnccn1)C(C)C)C(C)C (centres unmarked) [Compound 30] (Pyrazinecarbonyl-VV[Hyp]([CO-X32])[Abu]-aldehyde; configuration not given here)
- Ki: 1 to 100 µM

SMILES: CCC(C=O)NC(=O)C1CC(OC(=O)Nc2cccc(Cl)c2Cl)CN1C(=O)C(NC(=O)C(NC(=O)c1cnccn1)C(C)C)C(C)C (centres unmarked) [Compound 31] (Pyrazinecarbonyl-VV[Hyp]([CO-X42])[Abu]-aldehyde; configuration not given here)
- Ki: 1 to 100 µM

SMILES: CCC(C=O)NC(=O)C1CC(OC(=O)Nc2cccc(Cl)c2)CN1C(=O)C(NC(=O)C(NC(=O)c1cnccn1)C(C)C)C(C)C (centres unmarked) [Compound 32] (Pyrazinecarbonyl-VV[Hyp]([CO-NH(3-Cl-phenyl)])[Abu]-aldehyde; configuration not given here)
- Ki: 1 to 100 µM

SMILES: CCC(C=O)NC(=O)C1CC(OC(=O)Nc2cc(Cl)c(N)c(Cl)c2)CN1C(=O)C(NC(=O)C(NC(=O)c1cnccn1)C(C)C)C(C)C (centres unmarked) [Compound 33] (Pyrazinecarbonyl-VV[Hyp]([CO-X6])[Abu]-aldehyde; configuration not given here)
- Ki: > 100 µM
